Laboratory results: ChEMBL document CHEMBL4814022, “Enantiomeric 4'-truncated 6'-fluoro-3-deazaneplanocin and its 3-bromo derivative: Synthesis and antiviral properties, including Ebola and Marburg” (Bioorg Med Chem Lett, 2021)
pEC50: −log10 of the molar value. Activity calls are given as the source filed them. The rule behind the calls is not given here.

How the values were obtained:
Enterovirus A71 = assay: Antiviral activity against Human enterovirus 71 infected in African green monkey Vero 76 cells; assay type: functional, organism-based
Tacaribe virus = assay: Antiviral activity against Tacaribe virus infected in African green monkey Vero cells; assay type: functional, organism-based; conditions: Mammarenavirus tacaribeense
Influenza A virus = assay: Antiviral activity against Influenza A virus (H1N1) infected in dog MDCK cells; assay type: functional, organism-based
Chikungunya virus = assay: Antiviral activity against Chikungunya virus infected in African green monkey Vero 76 cells; assay type: functional, organism-based
Ebolavirus = assay: Antiviral activity against Ebola virus infected in African green monkey Vero 76 cells; assay type: functional, organism-based
Pichinde virus = assay: Antiviral activity against Pichinde virus infected in African green monkey Vero cells; assay type: functional, organism-based
dengue virus type 2 = assay: Antiviral activity against Dengue virus 2 infected in African green monkey Vero 76 cells; assay type: functional, organism-based
Measles morbillivirus [1] = assay: Antiviral activity against Measles virus infected in African green monkey Vero 76 cells; assay type: functional, organism-based
Lassa virus = assay: Antiviral activity against Lassa virus infected in African green monkey Vero cells; assay type: functional, organism-based; conditions: Mammarenavirus lassaense
Yellow fever virus = assay: Antiviral activity against Yellow fever virus infected in African green monkey Vero 76 cells; assay type: functional, organism-based
[2] = Selectivity index, ratio of EC50 for antiviral activity against BK polyomavirus infected in human HFF cells by visible analysis to CC50 for human HFF cells; assay type: toxicity, cell-based; conditions: read-out: Ratio CC50/EC50
West Nile virus = assay: Antiviral activity against West Nile virus infected in African green monkey Vero 76 cells; assay type: functional, organism-based
BK polyomavirus = assay: Antiviral activity against BK polyomavirus infected in human HFF cells; assay type: functional, organism-based; conditions: Betapolyomavirus hominis
[3] = tested on: Venezuelan equine encephalitis virus; assay: Antiviral activity against Venezuelan equine encephalitis virus infected in African green monkey Vero 76 cells; assay type: functional, organism-based
Human alphaherpesvirus 1 = assay: Antiviral activity against HSV-1 infected in human HFF cells; assay type: functional, organism-based
[4] = Cytotoxicity against human HFF cells; assay type: cell-based
Rift Valley fever virus = assay: Antiviral activity against Rift Valley fever virus infected in African green monkey Vero 76 cells; assay type: functional, organism-based
Zaire ebolavirus = assay: Antiviral activity against Zaire ebola virus infected in African green monkey Vero cells; assay type: functional, organism-based
[5] = Selectivity index, ratio of EC50 for antiviral activity against Marburgvirus Angola infected in African green monkey Vero cells to CC50 for African green monkey Vero cells; assay type: toxicity; conditions: read-out: Ratio CC50/EC50
[6] = Cytotoxicity against African green monkey Vero cells; assay type: cell-based; conditions: chlorocebus sabaeus
[7] = Selectivity index, ratio of CC50 for African green monkey Vero cells to EC50 for antiviral activity against Ebola virus infected in African green monkey Vero cells; assay type: toxicity; conditions: read-out: Ratio CC50/EC50
Marburgvirus = assay: Antiviral activity against Marburgvirus Angola infected in African green monkey Vero cells; assay type: functional, organism-based; conditions: Orthomarburgvirus
Measles morbillivirus [8] = assay: Antiviral activity against Measles virus infected in African green monkey Vero cells by neutral red assay; assay type: functional, organism-based
[9] = Selectivity index, ratio of EC50 for antiviral activity against Measles virus infected in African green monkey Vero cells to CC50 for African green monkey Vero cells; assay type: toxicity; conditions: read-out: Ratio CC50/EC50
[10] = Selectivity index, ratio of EC50 for antiviral activity against Norovirus infected in human HG23 cells by visible analysis to CC50 for human HG23 cells; assay type: toxicity, cell-based
[11] = Selectivity index, ratio of EC50 for antiviral activity against Measles virus infected in African green monkey Vero cells by visible analysis to CC50 for African green monkey Vero cells; assay type: toxicity; conditions: read-out: Ratio CC50/EC50
Junin virus = assay: Antiviral activity against Junin virus infected in African green monkey Vero cells; assay type: functional, organism-based; conditions: Mammarenavirus juninense
[12] = tested on: Japanese encephalitis virus; assay: Antiviral activity against Japanese encephalitis virus infected in African green monkey Vero 76 cells; assay type: functional, organism-based
Murine norovirus = assay: Antiviral activity against Murine norovirus infected in mouse RAW264.7 cells; assay type: functional, organism-based
Human adenovirus 5 = assay: Antiviral activity against Human adenovirus 5 infected in human A549 cells; assay type: functional, organism-based
Hepatitis B virus = assay: Antiviral activity against Hepatitis B virus infected in human HepG2.2.15 cells; assay type: functional, organism-based
Punta Toro virus = assay: Antiviral activity against Punta Toro virus infected in African green monkey Vero 76 cells; assay type: functional, organism-based
Measles morbillivirus [13] = assay: Antiviral activity against Measles virus infected in African green monkey Vero cells by visible analysis; assay type: functional, organism-based
Norovirus = assay: Antiviral activity against Norovirus infected in human HG23 cells; assay type: functional, organism-based
[14] = Cytotoxicity against human HG23 cells; assay type: cell-based

SMILES: Nc1ncc(Br)c2c1ncn2[C@H]1C(F)=C[C@H](O)[C@@H]1O
- Activity (Enterovirus A71): inactive
- Activity (Tacaribe virus): inactive
- Activity (Influenza A virus): inactive
- Activity (Chikungunya virus): inactive
- Activity (Ebolavirus): inactive
- Activity (Pichinde virus): inactive
- Activity (dengue virus type 2): inactive
- Activity (Measles morbillivirus [1]): inactive
- Activity (Lassa virus): inactive
- Activity (Yellow fever virus): inactive
- selectivity ratio [2]: > 4
- Activity (West Nile virus): inactive
- pEC50 (BK polyomavirus): 4.46
- EC90 (BK polyomavirus): 145 µM
- Activity [3]: inactive
- Activity (Human alphaherpesvirus 1): inactive
- CC50 [4]: > 150 µM
- Activity (Rift Valley fever virus): inactive

SMILES: Nc1nccc2c1ncn2[C@H]1C(F)=C[C@H](O)[C@@H]1O
- Activity (Enterovirus A71): inactive
- Activity (Tacaribe virus): inactive
- Activity (Influenza A virus): inactive
- Activity (Chikungunya virus): inactive
- Activity (Ebolavirus): inactive
- Activity (Pichinde virus): inactive
- Activity (dengue virus type 2): inactive
- Activity (Measles morbillivirus [1]): inactive
- Activity (Lassa virus): inactive
- Activity (Yellow fever virus): inactive
- selectivity ratio [2]: > 7
- Activity (West Nile virus): inactive
- pEC50 (BK polyomavirus): 4.64
- Activity [3]: inactive
- Activity (Human alphaherpesvirus 1): inactive
- CC50 [4]: > 150 µM
- Activity (Rift Valley fever virus): inactive

SMILES: NC(=O)c1nc(F)cnc1O [FAVIPIRAVIR]
- pEC50 (Zaire ebolavirus): 4.18
- selectivity ratio [5]: > 6.5
- CC50 [6]: > 1000 µM
- selectivity ratio [7]: 15
- pEC50 (Marburgvirus): 3.81

SMILES: Nc1ccn([C@@H]2O[C@H](CO)[C@@H](O)[C@H]2F)c(=O)n1
- pEC50 (Measles morbillivirus [8]): 5.96
- selectivity ratio [9]: > 91

SMILES: Nc1nccc2c1ncn2[C@@H]1C(F)=C[C@@H](O)[C@H]1O
- selectivity ratio ([10]; read-out: Ratio CC50/EC50): > 37
- pEC50 (Measles morbillivirus [8]): 5.44
- Activity (Enterovirus A71): inactive
- pEC50 (Zaire ebolavirus): 6.92
- Activity (Tacaribe virus): inactive
- Activity (Influenza A virus): inactive
- Activity (Chikungunya virus): inactive
- selectivity ratio [5]: 27
- Activity (Pichinde virus): inactive
- selectivity ratio [11]: 10
- Activity (dengue virus type 2): inactive
- Activity (Junin virus): inactive
- Activity [12]: inactive
- CC50 [6]: ≥ 14 µM
- Activity (Yellow fever virus): inactive
- Activity (Murine norovirus): inactive
- Activity (Human adenovirus 5): inactive
- Activity (Hepatitis B virus): inactive
- Activity (Punta Toro virus): inactive
- selectivity ratio [7]: 117
- Activity (West Nile virus): inactive
- pEC50 (Measles morbillivirus [13]): 5.38
- pEC50 (Marburgvirus): 6.28
- pEC50 (Norovirus): 5.57
- Activity [3]: inactive
- CC50 [14]: > 100 µM
- Activity (Rift Valley fever virus): inactive
- selectivity ratio [9]: 36

SMILES: Nc1ncc(Br)c2c1ncn2[C@@H]1C(F)=C[C@@H](O)[C@H]1O
- selectivity ratio ([10]; read-out: Ratio CC50/EC50): > 16
- pEC50 (Measles morbillivirus [8]): 5.92
- Activity (Enterovirus A71): inactive
- pEC50 (Zaire ebolavirus): 6.96
- Activity (Tacaribe virus): inactive
- Activity (Influenza A virus): inactive
- Activity (Chikungunya virus): inactive
- selectivity ratio [5]: 420
- Activity (Pichinde virus): inactive
- selectivity ratio [11]: 6.7
- Activity (dengue virus type 2): inactive
- Activity (Junin virus): inactive
- Activity [12]: inactive
- CC50 [6]: ≥ 9.5 µM
- Activity (Yellow fever virus): inactive
- Activity (Murine norovirus): inactive
- Activity (Human adenovirus 5): inactive
- Activity (Hepatitis B virus): inactive
- Activity (Punta Toro virus): inactive
- selectivity ratio [7]: 381
- Activity (West Nile virus): inactive
- pEC50 (Measles morbillivirus [13]): 5.74
- pEC50 (Marburgvirus): 7.00
- pEC50 (Norovirus): 5.19
- Activity [3]: inactive
- CC50 [14]: > 100 µM
- Activity (Rift Valley fever virus): inactive
- selectivity ratio [9]: 7.9

SMILES: C[C@@]1(O)[C@H](O)[C@@H](CO)O[C@H]1n1ccc(N)nc1=O
- selectivity ratio [10]: > 47
- pEC50 (Norovirus): 5.19
- CC50 [14]: > 300 µM
